In ChEMBL document CHEMBL4613211, “Aurone: A biologically attractive scaffold as anticancer agent” (Eur J Med Chem, 2019):

Key:
[1] = tested on: NCI-H322M; assay: Growth inhibition of human NCI-H322M cells at 10 uM after 48 hrs by sulforhodamine B assay relative to control; type: functional; settings: read-out: GI
[2] = tested on: SK-OV-3; assay: Growth inhibition of human SKOV3 cells at 10 uM after 48 hrs by sulforhodamine B assay relative to control; type: functional; settings: SK-OV-3, 48 h, read-out: GI
[3] = tested on: RXF 393; assay: Growth inhibition of human RXF393 cells at 10 uM after 48 hrs by sulforhodamine B assay relative to control; type: functional; settings: RXF 393, 48 h, read-out: GI
[4] = tested on: K562; assay: Growth inhibition of human K562 cells at 10 uM after 48 hrs by sulforhodamine B assay relative to control; type: functional; settings: K562, 48 h, read-out: GI
[5] = tested on: KM12; assay: Growth inhibition of human KM12 cells at 10 uM after 48 hrs by sulforhodamine B assay relative to control; type: functional; settings: KM12, 48 h, read-out: GI
[6] = tested on: COLO 205; assay: Growth inhibition of human COLO205 cells at 10 uM after 48 hrs by sulforhodamine B assay relative to control; type: functional; settings: COLO 205, 48 h, read-out: GI
[7] = tested on: ACHN; assay: Growth inhibition of human ACHN cells at 10 uM after 48 hrs by sulforhodamine B assay relative to control; type: functional; settings: read-out: GI
[8] = tested on: OVCAR-4; assay: Growth inhibition of human OVCAR4 cells at 10 uM after 48 hrs by sulforhodamine B assay relative to control; type: functional; settings: OVCAR-4, 48 h, read-out: GI
[9] = tested on: MDA-MB-435; assay: Growth inhibition of human MDA-MB-435 cells at 10 uM after 48 hrs by sulforhodamine B assay relative to control; type: functional; settings: MDA-MB-435, 48 h, read-out: GI
[10] = tested on: IGROV-1; assay: Growth inhibition of human IGROV1 cells at 10 uM after 48 hrs by sulforhodamine B assay relative to control; type: functional; settings: IGROV-1, 48 h, read-out: GI
[11] = tested on: Malme-3M; assay: Growth inhibition of human MALME-3M cells at 10 uM after 48 hrs by sulforhodamine B assay relative to control; type: functional; settings: read-out: GI
[12] = tested on: HOP-62; assay: Growth inhibition of human HOP62 cells at 10 uM after 48 hrs by sulforhodamine B assay relative to control; type: functional; settings: HOP-62, 48 h, read-out: GI
[13] = tested on: SF-295; assay: Growth inhibition of human SF295 cells at 10 uM after 48 hrs by sulforhodamine B assay relative to control; type: functional; settings: SF-295, 48 h, read-out: GI
[14] = tested on: OVCAR-5; assay: Growth inhibition of human OVCAR5 cells at 10 uM after 48 hrs by sulforhodamine B assay relative to control; type: functional; settings: OVCAR-5, 48 h, read-out: GI
[15] = tested on: HCT-15; assay: Growth inhibition of human HCT15 cells at 10 uM after 48 hrs by sulforhodamine B assay relative to control; type: functional; settings: HCT-15, 48 h, read-out: GI
[16] = tested on: HOP-92; assay: Growth inhibition of human HOP92 cells at 10 uM after 48 hrs by sulforhodamine B assay relative to control; type: functional; settings: HOP-92, 48 h, read-out: GI
[17] = tested on: HL-60(TB); assay: Growth inhibition of human HL-60(TB) cells at 10 uM after 48 hrs by sulforhodamine B assay relative to control; type: functional; settings: HL-60, 48 h, read-out: GI
[18] = tested on: T47D; assay: Growth inhibition of human T47D cells at 10 uM after 48 hrs by sulforhodamine B assay relative to control; type: functional; settings: read-out: GI
[19] = tested on: A549; assay: Growth inhibition of human A549/ATCC cells at 10 uM after 48 hrs by sulforhodamine B assay relative to control; type: functional; settings: A549, 48 h, read-out: GI
[20] = tested on: CCRF-CEM; assay: Growth inhibition of human CCRF-CEM cells at 10 uM after 48 hrs by sulforhodamine B assay relative to control; type: functional; settings: read-out: GI
[21] = tested on: NCI-H460; assay: Growth inhibition of human NCI-H460 cells at 10 uM after 48 hrs by sulforhodamine B assay relative to control; type: functional; settings: NCI-H460, 48 h, read-out: GI
[22] = tested on: UO-31; assay: Growth inhibition of human UO31 cells at 10 uM after 48 hrs by sulforhodamine B assay relative to control; type: functional; settings: UO-31, 48 h, read-out: GI
[23] = tested on: NCI-H23; assay: Growth inhibition of human NCI-H23 cells at 10 uM after 48 hrs by sulforhodamine B assay relative to control; type: functional; settings: NCI-H23, 48 h, read-out: GI
[24] = target: Cyclin-dependent kinase 2 (Homo sapiens, UniProt P24941); assay: Inhibition of CDK2 (unknown origin)

| Compound | inhibition of growth at 10 µM [1] | inhibition of growth at 10 µM [2] | inhibition of growth at 10 µM [3] | inhibition of growth at 10 µM [4] | inhibition of growth at 10 µM [5] | inhibition of growth at 10 µM [6] | inhibition of growth at 10 µM [7] | inhibition of growth at 10 µM [8] | inhibition of growth at 10 µM [9] | inhibition of growth at 10 µM [10] | inhibition of growth at 10 µM [11] | inhibition of growth at 10 µM [12] | inhibition of growth at 10 µM [13] | inhibition of growth at 10 µM [14] | inhibition of growth at 10 µM [15] | inhibition of growth at 10 µM [16] | inhibition of growth at 10 µM [17] | inhibition of growth at 10 µM [18] | inhibition of growth at 10 µM [19] | inhibition of growth at 10 µM [20] | other results |
| --- | --- | --- | --- | --- | --- | --- | --- | --- | --- | --- | --- | --- | --- | --- | --- | --- | --- | --- | --- | --- | --- |
| COc1ccc(/C=C2\Oc3c(c(OC)c4ccoc4c3CN3CCOCC3)C2=O)cc1 | 56.4 to 65.2% | 56.4 to 65.2% | 56.4 to 65.2% | 56.4 to 65.2% | 56.4 to 65.2% | 56.4 to 65.2% | 56.4 to 65.2% | 56.4 to 65.2% | 56.4 to 65.2% | 56.4 to 65.2% | 56.4 to 65.2% | 56.4 to 65.2% | 56.4 to 65.2% | 56.4 to 65.2% | 56.4 to 65.2% | 56.4 to 65.2% | 56.4 to 65.2% | 56.4 to 65.2% | 56.4 to 65.2% | 56.4 to 65.2% | inhibition of growth at 10 µM [21]: 56.4 to 65.2%; inhibition of growth at 10 µM [22]: 56.4 to 65.2%; inhibition of growth at 10 µM [23]: 56.4 to 65.2% |
| COc1cc(/C=C2\Oc3cc4occc4c(OC)c3C2=O)ccc1OCC(=O)Nc1ccccc1 | 67.1 to 79.6% | 67.1 to 79.6% | 67.1 to 79.6% | 67.1 to 79.6% | 67.1 to 79.6% | 67.1 to 79.6% | 67.1 to 79.6% | 67.1 to 79.6% | 67.1 to 79.6% | 67.1 to 79.6% | 67.1 to 79.6% | 67.1 to 79.6% | 67.1 to 79.6% | 67.1 to 79.6% | 67.1 to 79.6% | 67.1 to 79.6% | 67.1 to 79.6% | 67.1 to 79.6% | 67.1 to 79.6% | 67.1 to 79.6% | IC50 [24]: 1110 nM; inhibition of growth at 10 µM [21]: 67.1 to 79.6%; inhibition of growth at 10 µM [22]: 67.1 to 79.6%; inhibition of growth at 10 µM [23]: 67.1 to 79.6% |
| COc1ccc2c(c1)O/C(=C\c1ccc(OCC(=O)Nc3ccccc3)c(OC)c1)C2=O | 18.9 to 27.1% | 18.9 to 27.1% | 18.9 to 27.1% | 18.9 to 27.1% | 18.9 to 27.1% | 18.9 to 27.1% | 18.9 to 27.1% | 18.9 to 27.1% | 18.9 to 27.1% | 18.9 to 27.1% | 18.9 to 27.1% | 18.9 to 27.1% | 18.9 to 27.1% | 18.9 to 27.1% | 18.9 to 27.1% | 18.9 to 27.1% | 18.9 to 27.1% | 18.9 to 27.1% | 18.9 to 27.1% | 18.9 to 27.1% | inhibition of growth at 10 µM [21]: 18.9 to 27.1%; inhibition of growth at 10 µM [22]: 18.9 to 27.1%; inhibition of growth at 10 µM [23]: 18.9 to 27.1% |
